pIC50: −log10 of the molar value.
Each molecule was assayed against T1, TLR8 (Homo sapiens, UniProt Q9NR97) (assay: huPBMC TLR8 Antagonist IL-6 TR-FRET Assay). Conditions: human PBMCs stimulated with ssRNA40 1 μg/ml (DOTAP), 14-16 hrs; IL-6 TR-FRET read-out.
T1 sequence (Q9NR97 27-1041): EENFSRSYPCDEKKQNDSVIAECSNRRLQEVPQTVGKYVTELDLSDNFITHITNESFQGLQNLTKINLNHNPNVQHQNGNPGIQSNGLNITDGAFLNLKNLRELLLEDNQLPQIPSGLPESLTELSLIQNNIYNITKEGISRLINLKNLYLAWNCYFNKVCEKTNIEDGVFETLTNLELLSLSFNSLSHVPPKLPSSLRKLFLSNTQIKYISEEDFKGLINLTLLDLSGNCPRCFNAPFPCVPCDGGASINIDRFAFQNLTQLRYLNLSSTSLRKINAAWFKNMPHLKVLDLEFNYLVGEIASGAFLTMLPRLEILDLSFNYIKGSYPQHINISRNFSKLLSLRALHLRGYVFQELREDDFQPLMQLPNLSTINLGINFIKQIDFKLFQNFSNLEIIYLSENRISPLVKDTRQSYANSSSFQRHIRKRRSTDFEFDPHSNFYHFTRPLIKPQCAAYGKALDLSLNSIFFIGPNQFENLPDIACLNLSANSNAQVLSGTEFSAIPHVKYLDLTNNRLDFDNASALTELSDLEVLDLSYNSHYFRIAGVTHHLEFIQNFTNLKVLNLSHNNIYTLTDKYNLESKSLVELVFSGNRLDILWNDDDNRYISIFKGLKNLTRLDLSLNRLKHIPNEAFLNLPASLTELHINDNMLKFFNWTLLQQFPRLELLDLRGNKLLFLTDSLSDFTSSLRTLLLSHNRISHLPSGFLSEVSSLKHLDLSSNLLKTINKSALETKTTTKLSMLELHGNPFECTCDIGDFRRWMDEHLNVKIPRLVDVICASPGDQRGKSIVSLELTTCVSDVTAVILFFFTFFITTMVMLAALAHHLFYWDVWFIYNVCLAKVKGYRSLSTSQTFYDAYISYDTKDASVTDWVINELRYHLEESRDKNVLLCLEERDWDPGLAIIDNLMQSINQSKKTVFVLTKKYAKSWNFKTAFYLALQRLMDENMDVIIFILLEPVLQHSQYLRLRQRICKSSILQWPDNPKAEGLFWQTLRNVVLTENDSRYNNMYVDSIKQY
Type: cell-based
Parameters: Fresh blood was collected from normal human donors; endogenous in cells; host or cells: human PBMCs from fresh donor blood
Protocol: Compounds were generally serially diluted (1/3) in DMSO and plated on sterile 384 well tissue culture plates and stored until ready for use. Each ten-point dilution was typically plated in triplicate in parallel rows.
Fresh blood was collected from normal human donors underwritten informed consent in heparinized syringes on the morning of the assay. The blood was diluted in RPMI-1640 medium and the white blood cells were separated from red blood cells by centrifugation (800 g 15′ 0 acceleration, 0 brake) on a Ficoll cushion. Peripheral blood mononuclear cells (PBMCs) were separated from platelets by a series of low-speed centrifugations (1000RPM 10′) in PBS+5% HI—FBS and 1 mM EDTA. Purified PBMCs were re-suspended in assay medium (RPMI-1640 w Glutamax (Invitrogen) supplemented with 5% HI—FBS, 10 mM HEPES, 50 uM β-mercaptoethanol, and 100 mG/L penicillin/streptomycin cocktail). Viable PBMCs were counted on a hemacytometer and kept on ice until ready for plating.
A 4× concentration (4 ug/ml or 40 ug/ml for TLR8 or TLR7 assays, respectively) of the TLR7/8 agonist ssRNA40 (IDT) was complexed with 10% DOTAP (Roche) in assay medium for 30 min prior to addition to the PBMC suspension (5 million cells/ml). After addition, the final concentration of ssRNA40 in the TLR7/8 stimulated PBMC suspension was 1 μg/ml for TLR8 assay, and 10 μg/mL for the TLR7 assay. The final DOTAP concentration was 2.5%. Diluted PBMCs (5 million cells/ml) were treated with 4×TLR9 agonist ODN2216 (Invivogen). Final concentration of ODN2216 in TLR9 stimulated PBMC suspension was 0.3 μM.
Agonist stimulated PBMCs were plated on the compound treated 384 well plates at 150,000 cells/well. Un-stimulated PBMCs were plated as controls on each plate. Plating volume was 40 μL per well. DMSO concentration in each well was 0.25%.
A separate plate, without compounds, with titrations of ssRNA40 and ODN2216 was included in every assay to measure agonist response of each donor's PBMC prep. Assay plates were placed in a tissue culture incubator (37° C., 5% CO2) for 14-16 hrs. After this incubation, the plates were centrifuged and stored at −20° C. until they were assayed.
IL-6 TR-FRET Assay for TLR8 activity: • 1) Cisbio Human IL-6 kit, 20,000 tests (62TNFPEC), and GNF High-Base TC 384 well plates (cat #789163G) were used; • 2) the Anti-TIL-6 Cryptate conjugate and the Anti-IL-6 XL665 conjugate were diluted 1:20 in Reconstitution Buffer; • 3) a 1:1 mixture of 3 μl/well Anti-IL-6 Cryptate conjugate and 3 μl/well Anti-IL-6 XL665 conjugate was prepared; • 4) 6 μl/well HTRF dilution mastermix was added to 6 μl of transferred supernatant samples in proxiplates; • 5) The plates were incubated for 3 hrs at rt in the dark; and • 6) the levels of IL-6 production was measured using an Envision plate reader (665 nm (emmission)/590 nm (excitation)) with HTRF settings and ratiometric read-out: (XL665 emission/Eu Cryptate emission)×10,000. IFNα2b AlphaLISA Assay for TLR7 or TLR9 activity After thawing the assay plates, 6 μL of supernatant samples were transferred to a low-volume AlphaPlate 384SW (Perkin-Elmer). The concentration of IFNα in supernatants was measured using the IFNα2b AlphaLISA Assay (Perkin-Elmer: AL297F). 3 μL of IFNα acceptor beads/biotinylated antibody solution was added first, using laboratory automation. After an hour incubation, […] of streptavidin […] bead solution was added. The plates containing this mixture were incubated in the dark for an hour and read on an appropriate plate reader at reading parameters set by the manufacturer. (Envision, EnSpire: Perkin-Elmer).

| pIC50 | SMILES |
| --- | --- |
| 6.21 | COc1ccc(-c2cc(N3CCc4c(c(C)nn4CC45CCC(N)(CC4)CC5)C3)ccn2)cc1 [compound 89, 4-((5-(2-(4-methoxyphenyl)pyridin-4-yl)-3-methyl-4,5,6,7-tetrahydro-1H-pyrazolo[4,3-c]pyridin-1-yl)methyl)bicyclo[2.2.2]octan-1-amine] |
| 6.00 | Cc1ccc(-c2cc(N3CCc4c(c(C)nn4CC45CCC(N)(CC4)CC5)C3)ccn2)cc1 [compound 90, 4-((3-methyl-5-(2-(p-tolyl)pyridin-4-yl)-4,5,6,7-tetrahydro-1H-pyrazolo[4,3-c]pyridin-1-yl)methyl)bicyclo[2.2.2]octan-1-amine] |
| 6.01 | Cc1cc(N2CCc3c(c(C)nn3CC34CCC(N)(CC3)CC4)C2)cc(-c2ccccc2)n1 [compound 93, 4-((3-methyl-5-(2-methyl-6-phenylpyridin-4-yl)-4,5,6,7-tetrahydro-1H-pyrazolo[4,3-c]pyridin-1-yl)methyl)bicyclo[2.2.2]octan-1-amine] |
| 5.96 | Cc1nn(CC23CCC(N)(CC2)CC3)c2c1CN(c1ccnc(-c3ccccn3)c1)CC2 [compound 94, 4-((5-([2,2'-bipyridin]-4-yl)-3-methyl-4,5,6,7-tetrahydro-1H-pyrazolo[4,3-c]pyridin-1-yl)methyl)bicyclo[2.2.2]octan-1-amine] |
| 7.07 | Cc1cc(N2CCc3c(c(C)nn3CC34CCC(N5CCCCC5)(CC3)CO4)C2)c2cnn(C)c2n1 [compound 95, 5-(1,6-dimethyl-1H-pyrazolo[3,4-b]pyridin-4-yl)-3-methyl-1-((4-(piperidin-1-yl)-2-oxabicyclo[2.2.2]octan-1-yl)methyl)-4,5,6,7-tetrahydro-1H-pyrazolo[4,3-c]pyridine] |
| 6.11 | COCC(C)NC12CCC(Cn3nc(C)c4c3CCN(c3cc(C)nc5c3cnn5C)C4)(CC1)CC2 (stereo not drawn) [compound 96, 4-((5-(1,6-dimethyl-1H-pyrazolo[3,4-b]pyridin-4-yl)-3-methyl-4,5,6,7-tetrahydro-1H-pyrazolo[4,3-c]pyridin-1-yl)methyl)-N-(1-methoxypropan-2-yl)bicyclo[2.2.2]octan-1-amine] |
| 7.05 | CCN(C)C12CCC(Cn3nc(C)c4c3CCN(c3cc(C)nc5c3cnn5C)C4)(CC1)CC2 [compound 97, 4-((5-(1,6-dimethyl-1H-pyrazolo[3,4-b]pyridin-4-yl)-3-methyl-4,5,6,7-tetrahydro-1H-pyrazolo[4,3-c]pyridin-1-yl)methyl)-N-ethyl-N-methylbicyclo[2.2.2]octan-1-amine] |
| 6.14 | Cc1cc(N2CCc3c(c(C)nn3CC34CCC(N(C)C)(CC3)CO4)C2)c2cnn(C)c2n1 [compound 98, 1-((5-(1,6-dimethyl-1H-pyrazolo[3,4-b]pyridin-4-yl)-3-methyl-4,5,6,7-tetrahydro-1H-pyrazolo[4,3-c]pyridin-1-yl)methyl)-N,N-dimethyl-2-oxabicyclo[2.2.2]octan-4-amine] |
| 5.85 | Cc1nn(CC23CCC(N)(CC2)CC3)c2c1CN(c1nc(Cl)nc3c1COC3)CC2 [compound 103, 4-((5-(2-chloro-5,7-dihydrofuro[3,4-d]pyrimidin-4-yl)-3-methyl-4,5,6,7-tetrahydro-1H-pyrazolo[4,3-c]pyridin-1-yl)methyl)bicyclo[2.2.2]octan-1-amine] |
| 6.04 | Cc1cc(N2CCc3c(c(C)nn3CC34CCC(NC(=O)C5COCCN5C)(CC3)CC4)C2)c2cnn(C)c2n1 (stereo not drawn) [compound 122, N-(4-((5-(1,6-dimethyl-1H-pyrazolo[3,4-b]pyridin-4-yl)-3-methyl-4,5,6,7-tetrahydro-1H-pyrazolo[4,3-c]pyridin-1-yl)methyl)bicyclo[2.2.2]octan-1-yl)-4-methylmorpholine-3-carboxamide] |
| 6.16 | Cc1nc(N2CCc3c(c(C)nn3CC34CCC(N)(CC3)CC4)C2)c2cnn(C)c2n1 [compound 149, 4-((5-(1,6-dimethyl-1H-pyrazolo[3,4-d]pyrimidin-4-yl)-3-methyl-4,5,6,7-tetrahydro-1H-pyrazolo[4,3-c]pyridin-1-yl)methyl)bicyclo[2.2.2]octan-1-amine] |
| 5.38 | CCn1ncc2c(N3CCc4c(c(C)nn4CC45CCC(N)(CC4)CC5)C3)cc(C)nc21 [compound 150, 4-((5-(1-ethyl-6-methyl-1H-pyrazolo[3,4-b]pyridin-4-yl)-3-methyl-4,5,6,7-tetrahydro-1H-pyrazolo[4,3-c]pyridin-1-yl)methyl)bicyclo[2.2.2]octan-1-amine] |
